Measurements from patent publication US20050154036A1, “Methods of using zonisamide as an adjunctive therapy for partial seizures” (Eisai Co., Ltd., priority 2004, published 2005).

Key:
[1] = cited from earlier work; for hyperammonemia as adverse effect: literature
[2] = tested on: cultured mouse spinal cord neurons; conditions: 10-30 μg/mL; cited from earlier work
[3] = tested on: GABA/benzodiazepine receptor ionophore complex; conditions: in vitro; cited from earlier work
rat hippocampal slices = conditions: 10-30 μg/mL; cited from earlier work
[4] = human, in vivo
Excerpt: The pharmacovigilance data that were collected, reviewed and analyzed provided the following information in respect of the incidence of hyperammonemia. A total of 4 cases fulfilled the criteria of potential hyperammonemia cases. These cases were reviewed in detail for evaluation of possible safety signals. Two US cases were reported as either high ammonia levels or increased ammonia. Two Japanese cases were reported as hyperammonemia.
Of these, two (2) cases (both ZON1000262 and ZON1000346) had strong confounding factors and seem to be unrelated to zonisamide, but the possibility of zonisamide involvement cannot be completely excluded. The two cases of hyperammonemia originated from Japan and both involved adult patients. Both cases were serious and described as life-threatening. […]
Estimates of exposure, based upon retail and mail order prescriptions, indicate that the number of unique patients taking zonisamide capsules in the U.S. is about 37,276 (total prescriptions per year/average number of prescriptions per patient per year less a calculated percentage decrease based on estimated annual dropouts) in the time between approval in 2000 and December 2002. […] Similarly, the incidences of NMS estimated herein are unlikely to be higher than calculated. Based on the exposure data and number of hyperammonemia cases, the incidence of hyperammonemia is calculated to be about […].

T-type Ca2+ currents = conditions: in vitro; cited from earlier work
[5] = cited from earlier work
carbonic anhydrase = conditions: fraction of the inhibition by acetazolamide; cited from earlier work
[6] = tested on: dopaminergic and serotonergic neurotransmission; conditions: in vivo microdialysis; cited from earlier work
sodium channels = conditions: in vitro; cited from earlier work

SMILES | hyperammonemia as adverse effect [1] | postsynaptic GABA or glutamate responses [2] | synaptically-driven electrical activity [2] | binding to the GABA/benzodiazepine receptor ionophore complex [3] | changes in chloride flux [3] | neuronal or glial uptake of [3H]-GABA (rat hippocampal slices) | cases fulfilling the criteria of potential hyperammonemia cases [4] | incidence of hyperammonemia [4] | effect on voltage-dependent, transient inward currents (T-type Ca2+ currents) (T-type Ca2+ currents) | hepatic enzyme induction ([5]; in vivo) | time required to achieve steady-state levels ([5]; upon reaching a stable dose or following dosage adjustment) | carbonic anhydrase inhibition compared to acetazolamide (carbonic anhydrase) | dopaminergic and serotonergic neurotransmission [6] | effect on sodium channels (sodium channels) | cases of hyperammonemia associated with the drug ([1]; since 1979, O'Neil et al. 2002)
NC(=O)N1c2ccccc2C=Cc2ccccc21 [carbamazepine] | known to cause hyperammonemia | – | – | – | – | – | – | – | – | – | – | – | – | – | –
NS(=O)(=O)Cc1noc2ccccc12 [zonisamide, 1,2-benzisoxazole-3-methanesulfonamide] | – | without affecting | suppresses | binds to the GABA/benzodiazepine receptor ionophore complex in an allosteric fashion | does not produce changes in chloride flux | without affecting | 4 cases | about 1:1,222,453 | reduces | not known to be a hepatic enzyme inducer | up to two weeks | 1/50 | facilitates | blocks sodium channels | –
CCCC(CCC)C(=O)O [valproate] | known to cause hyperammonemia | – | – | – | – | – | – | – | – | – | – | – | – | – | more than 30 cases
